Data: patent publication US4774381A, “Herbicide resistant tobacco” (E. I. Du Pont de Nemours and Company, priority 1985, dated 1988)

Legend:
Experiment in all cases: Callus growth test
Format in all cases: cell-based, Nicotiana tabacum
[1] = test system: Isolate 16 (S4/S4) cell line
Protocol: (§1) Callus growth tests were conducted substantially according to the following procedure. Approximately 50 mg callus tissue, grown on non-selective media, was spread over 7 cm diameter paper filter discs (Whatman No. 1), which were placed on the medium surface of petri dishes containing C1 agar media and varying concentrations of chlorsulfuron. The resulting cultures were incubated for 14 days at 25±1°, under fluorescent lamps programmed to provide a 16-hour photoperiod per day. At the conclusion of the incubation period, tissue was scraped from each filter disc and weighed. The final fresh weights were recorded, and means and standard errors of the means determined for all cases. The significance of differences between responses of individual cell lines to various concentrations of chlorsulfuron was determined at a probability level of 5% by a t-test for populations having different standard deviations, as described by Snedecor, et al., Statistical Methods (Iowa State University Press, Ames, Iowa, (1967), pp. 114-116).
(§2) The isolates tested were established from plants produced by self-fertilization of a S4/+ heterozygote produced by two successive backcrosses of a regenerated mutant plant to normal plants. In addition, growth responses were determined for cell cultures initiated from two individuals of the same genotype with respect to the S4 mutation. The genotypes of these cell lines were confirmed by progeny analyses of the plants from which they were derived. These precautions were intended to eliminate background variability which might otherwise obscure the effects of the resistance mutation.

[2] = test system: Isolate 24 (S4/+) cell line; settings: 14 days
Protocol: as §1, §2

[3] = test system: Isolate 7 (+/+) cell line; settings: 14 days
Protocol: as §1, §2

[4] = test system: Isolate 23 (S4/+) cell line; settings: 14 days
Protocol: as §1, §2

[5] = test system: Isolate 1 (+/+) cell line
Protocol: as §1, §2

[6] = test system: Isolate 30 (S4/S4) cell line; settings: 14 days
Protocol: as §1, §2

[7] = Nicotiana tabacum, 336 h, chlorsulfuron 1.0 ppb, 14 days, read-out: % of fresh weight at 0 ppb
[8] = Nicotiana tabacum, 336 h, chlorsulfuron 3.0 ppb, 14 days, read-out: % of fresh weight at 0 ppb
[9] = Nicotiana tabacum, 336 h, chlorsulfuron 0.3 ppb, read-out: % of fresh weight at 0 ppb
[10] = Nicotiana tabacum, 336 h, chlorsulfuron 1.0 ppb, read-out: % of fresh weight at 0 ppb
[11] = Nicotiana tabacum, 336 h, chlorsulfuron 3.0 ppb, read-out: % of fresh weight at 0 ppb
[12] = Nicotiana tabacum, 336 h, chlorsulfuron 10.0 ppb, read-out: % of fresh weight at 0 ppb
[13] = Nicotiana tabacum, 336 h, chlorsulfuron 30.0 ppb, read-out: % of fresh weight at 0 ppb

COc1nc(C)nc(NC(=O)NS(=O)(=O)c2ccccc2Cl)n1 [Chlorsulfuron, chlorsulfuron]
activity at 0.001 µg/mL [1, 7]: 95.8% | activity at 0.003 µg/mL [1, 8]: 90% | activity at 0.01 µg/mL ([1]; Nicotiana tabacum, 336 h, chlorsulfuron 10.0 ppb, 14 days, read-out: % of fresh weight at 0 ppb): 95.5% | activity at 0.03 µg/mL ([1]; Nicotiana tabacum, 336 h, chlorsulfuron 30.0 ppb, 14 days, read-out: % of fresh weight at 0 ppb): 79.9% | significance of growth inhibition (t-test, 5%) ([1]; both homozygous mutant lines (Isolates 16 and 30), concentrations below 30 ppb): neither homozygous mutant cell was significantly inhibited | Fr. Wt. ([1]; chlorsulfuron 0.1 ppb, 14 days): 3755 ± 259 mg | Fr. Wt. ([1]; chlorsulfuron 0.3 ppb, 14 days): 3778 ± 219 mg | Fr. Wt. ([1]; chlorsulfuron 1.0 ppb, 14 days): 3148 ± 196 mg | Fr. Wt. ([1]; chlorsulfuron 3.0 ppb, 14 days): 2958 ± 161 mg | Fr. Wt. ([1]; chlorsulfuron 10.0 ppb, 14 days): 3171 ± 260 mg | Fr. Wt. ([1]; chlorsulfuron 30.0 ppb, 14 days): 2625 ± 202 mg | increase of tolerance of cultured cells by S4 mutation ([1]; homozygous lines at 30 ppb versus Isolate 7 at 0.3 ppb): at least 100 fold | activity at 0.0003 µg/mL [2, 9]: 98.9% | activity at 0.001 µg/mL [2, 10]: 87.5% | activity at 0.003 µg/mL [2, 11]: 73% | activity at 0.01 µg/mL [2, 12]: 76.4% | activity at 0.03 µg/mL [2, 13]: 55.1% | Fr. Wt. ([2]; chlorsulfuron 0.1 ppb): 2895 ± 187 mg | Fr. Wt. ([2]; chlorsulfuron 0.3 ppb): 2842 ± 124 mg | Fr. Wt. ([2]; chlorsulfuron 1.0 ppb): 2515 ± 155 mg | Fr. Wt. ([2]; chlorsulfuron 3.0 ppb): 2099 ± 129 mg | Fr. Wt. ([2]; chlorsulfuron 10.0 ppb): 2196 ± 235 mg | Fr. Wt. ([2]; chlorsulfuron 30.0 ppb): 1585 ± 129 mg | activity at 0.0001 µg/mL ([3]; Nicotiana tabacum, 336 h, chlorsulfuron 0.1 ppb, read-out: % of fresh weight at 0 ppb): 93.1% | activity at 0.0003 µg/mL [3, 9]: 59.8% | activity at 0.001 µg/mL [3, 10]: 9.2% | activity at 0.003 µg/mL [3, 11]: 2.5% | Fr. Wt. ([3]; chlorsulfuron 0.1 ppb): 2170 ± 94 mg | Fr. Wt. ([3]; chlorsulfuron 0.3 ppb): 1395 ± 116 mg | Fr. Wt. ([3]; chlorsulfuron 1.0 ppb): 215 ± 33 mg | Fr. Wt. ([3]; chlorsulfuron 3.0 ppb): 58 ± 4 mg | activity at 0.0003 µg/mL [4, 9]: 95.8% | activity at 0.001 µg/mL [4, 10]: 93.8% | activity at 0.003 µg/mL [4, 11]: 89.9% | activity at 0.01 µg/mL [4, 12]: 57.6% | activity at 0.03 µg/mL [4, 13]: 28.1% | Fr. Wt. ([4]; chlorsulfuron 0.1 ppb): 2803 ± 153 mg | Fr. Wt. ([4]; chlorsulfuron 0.3 ppb): 2559 ± 174 mg | Fr. Wt. ([4]; chlorsulfuron 1.0 ppb): 2505 ± 134 mg | Fr. Wt. ([4]; chlorsulfuron 3.0 ppb): 2401 ± 218 mg | Fr. Wt. ([4]; chlorsulfuron 10.0 ppb): 1537 ± 90 mg | Fr. Wt. ([4]; chlorsulfuron 30.0 ppb): 749 ± 54 mg | significance of growth inhibition (t-test, 5%) ([5]; 0.1 ppb chlorsulfuron): significantly inhibited | activity at 0.0001 µg/mL ([5]; Nicotiana tabacum, 336 h, chlorsulfuron 0.1 ppb, 14 days, read-out: % of fresh weight at 0 ppb): 76.7% | activity at 0.0003 µg/mL ([5]; Nicotiana tabacum, 336 h, chlorsulfuron 0.3 ppb, 14 days, read-out: % of fresh weight at 0 ppb): 40.4% | activity at 0.001 µg/mL [5, 7]: 3.6% | activity at 0.003 µg/mL [5, 8]: 1.8% | Fr. Wt. ([5]; chlorsulfuron 0.1 ppb, 14 days): 2287 ± 198 mg | Fr. Wt. ([5]; chlorsulfuron 0.3 ppb, 14 days): 1204 ± 107 mg | Fr. Wt. ([5]; chlorsulfuron 1.0 ppb, 14 days): 106 ± 9 mg | Fr. Wt. ([5]; chlorsulfuron 3.0 ppb, 14 days): 55 ± 3 mg | activity at 0.001 µg/mL [6, 10]: 98.4% | activity at 0.03 µg/mL [6, 13]: 90.3% | Fr. Wt. ([6]; chlorsulfuron 0.1 ppb): 3235 ± 159 mg | Fr. Wt. ([6]; chlorsulfuron 0.3 ppb): 3157 ± 76 mg | Fr. Wt. ([6]; chlorsulfuron 1.0 ppb): 2707 ± 250 mg | Fr. Wt. ([6]; chlorsulfuron 3.0 ppb): 3287 ± 136 mg | Fr. Wt. ([6]; chlorsulfuron 10.0 ppb): 2975 ± 139 mg | Fr. Wt. ([6]; chlorsulfuron 30.0 ppb): 2486 ± 170 mg
